Earlier results in patent US5583105A, “Oral pharmaceutical preparation” (Biogal Gyogyszerguar Rt, priority 1994, dated 1996).

Details: in water

- concentration of aqueous solution formed: 6.5%
SMILES: CCOC(=O)CC(O)(CC(=O)OCC)C(=O)OCC [triethylcitrate, triethyl-citrate]
